AC50 data for eight molecules are collected here from ChEMBL document CHEMBL5291721, “A preclinical secondary pharmacology resource illuminates target-adverse drug reaction associations of marketed drugs” (Nat Commun, 2023).

The target in test [1] is Gamma-aminobutyric acid type B receptor subunit 1 (Homo sapiens, UniProt Q9UBS5).
In test [2] the target is T1, Neuropeptide Y receptor type 2 (Homo sapiens, UniProt P49146).
T1 sequence (P49146 whole entry): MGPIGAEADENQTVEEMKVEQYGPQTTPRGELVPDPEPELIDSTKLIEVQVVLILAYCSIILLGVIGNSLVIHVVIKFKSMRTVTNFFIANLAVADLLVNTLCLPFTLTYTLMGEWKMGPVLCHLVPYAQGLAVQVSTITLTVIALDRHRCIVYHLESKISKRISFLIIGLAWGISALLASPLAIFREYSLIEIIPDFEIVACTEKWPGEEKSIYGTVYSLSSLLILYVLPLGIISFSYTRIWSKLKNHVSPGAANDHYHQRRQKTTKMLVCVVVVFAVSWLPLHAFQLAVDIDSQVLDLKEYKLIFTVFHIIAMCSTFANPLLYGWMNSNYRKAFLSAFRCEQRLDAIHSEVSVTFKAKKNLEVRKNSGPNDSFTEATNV

Another test addresses T2, D(4) dopamine receptor (Homo sapiens, UniProt P21917).
T2 sequence (P21917 whole entry): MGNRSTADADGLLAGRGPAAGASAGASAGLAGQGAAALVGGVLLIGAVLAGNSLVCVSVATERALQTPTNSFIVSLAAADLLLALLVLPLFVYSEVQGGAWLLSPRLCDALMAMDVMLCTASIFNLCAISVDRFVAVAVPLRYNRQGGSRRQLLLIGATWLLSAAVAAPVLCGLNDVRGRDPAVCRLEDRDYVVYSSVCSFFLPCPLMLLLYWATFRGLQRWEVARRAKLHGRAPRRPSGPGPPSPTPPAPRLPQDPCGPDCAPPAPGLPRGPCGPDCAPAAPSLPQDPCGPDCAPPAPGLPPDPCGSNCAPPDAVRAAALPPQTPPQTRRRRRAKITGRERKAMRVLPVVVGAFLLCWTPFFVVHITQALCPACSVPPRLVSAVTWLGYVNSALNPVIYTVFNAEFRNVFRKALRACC

Test [3] deals with T3, Alpha-2A adrenergic receptor (Homo sapiens, UniProt P08913).
T3 sequence (P08913 whole entry): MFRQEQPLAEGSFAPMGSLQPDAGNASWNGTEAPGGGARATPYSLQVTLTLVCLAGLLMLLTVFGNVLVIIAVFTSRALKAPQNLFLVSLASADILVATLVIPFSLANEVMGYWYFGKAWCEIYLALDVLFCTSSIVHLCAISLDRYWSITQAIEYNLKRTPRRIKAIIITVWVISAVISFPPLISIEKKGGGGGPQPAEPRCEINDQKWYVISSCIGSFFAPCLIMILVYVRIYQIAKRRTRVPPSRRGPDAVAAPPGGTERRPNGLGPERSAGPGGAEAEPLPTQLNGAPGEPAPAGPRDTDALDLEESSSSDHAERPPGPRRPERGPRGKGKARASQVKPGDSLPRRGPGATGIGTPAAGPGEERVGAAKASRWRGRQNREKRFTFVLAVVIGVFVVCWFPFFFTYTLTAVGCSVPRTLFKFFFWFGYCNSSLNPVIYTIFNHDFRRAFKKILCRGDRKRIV

The target of test [4] is T4, Alpha-1A adrenergic receptor (Homo sapiens, UniProt P35348).
T4 sequence (P35348 whole entry): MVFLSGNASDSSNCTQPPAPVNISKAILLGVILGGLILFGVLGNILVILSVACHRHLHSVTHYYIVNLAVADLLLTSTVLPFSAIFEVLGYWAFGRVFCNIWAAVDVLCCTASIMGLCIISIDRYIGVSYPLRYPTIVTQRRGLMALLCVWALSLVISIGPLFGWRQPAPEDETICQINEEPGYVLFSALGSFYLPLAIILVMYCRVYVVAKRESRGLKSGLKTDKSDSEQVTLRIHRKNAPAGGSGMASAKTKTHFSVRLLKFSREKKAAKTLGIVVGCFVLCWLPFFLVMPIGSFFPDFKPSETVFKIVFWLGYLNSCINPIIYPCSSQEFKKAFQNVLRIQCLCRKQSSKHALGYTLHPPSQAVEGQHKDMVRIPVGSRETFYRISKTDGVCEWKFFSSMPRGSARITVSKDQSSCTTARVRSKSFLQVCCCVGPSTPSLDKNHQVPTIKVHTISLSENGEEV

The target of test [5] is T5, Muscarinic acetylcholine receptor M5 (Homo sapiens, UniProt P08912).
T5 sequence (P08912 whole entry): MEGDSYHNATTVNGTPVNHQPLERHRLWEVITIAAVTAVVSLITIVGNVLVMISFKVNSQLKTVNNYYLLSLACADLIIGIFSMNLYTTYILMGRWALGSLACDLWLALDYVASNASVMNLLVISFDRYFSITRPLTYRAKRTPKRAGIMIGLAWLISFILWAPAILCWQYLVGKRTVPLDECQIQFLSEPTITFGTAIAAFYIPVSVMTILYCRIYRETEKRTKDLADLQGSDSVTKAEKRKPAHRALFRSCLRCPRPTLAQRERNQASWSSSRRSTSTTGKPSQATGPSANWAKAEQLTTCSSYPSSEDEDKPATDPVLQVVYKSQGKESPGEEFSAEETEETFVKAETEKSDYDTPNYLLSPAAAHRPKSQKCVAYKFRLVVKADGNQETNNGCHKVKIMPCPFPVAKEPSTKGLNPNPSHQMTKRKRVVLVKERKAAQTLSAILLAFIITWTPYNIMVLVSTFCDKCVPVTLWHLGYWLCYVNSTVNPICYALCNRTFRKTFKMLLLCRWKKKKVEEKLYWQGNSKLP

Test [6] addresses T6, Endothelin receptor type B (Homo sapiens, UniProt P24530).
T6 sequence (P24530 whole entry): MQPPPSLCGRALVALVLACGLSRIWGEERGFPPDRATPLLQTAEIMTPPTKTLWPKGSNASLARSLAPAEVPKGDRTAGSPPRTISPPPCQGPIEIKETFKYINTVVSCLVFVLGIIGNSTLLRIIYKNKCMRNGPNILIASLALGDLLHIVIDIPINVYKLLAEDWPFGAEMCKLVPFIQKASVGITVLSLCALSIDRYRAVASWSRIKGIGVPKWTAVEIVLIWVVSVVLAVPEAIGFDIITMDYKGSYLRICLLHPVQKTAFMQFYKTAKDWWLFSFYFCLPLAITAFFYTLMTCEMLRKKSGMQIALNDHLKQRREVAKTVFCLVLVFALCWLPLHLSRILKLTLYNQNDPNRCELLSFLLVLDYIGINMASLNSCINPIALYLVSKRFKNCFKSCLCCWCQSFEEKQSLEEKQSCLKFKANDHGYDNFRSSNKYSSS

The next test concerns the target Histamine H2 receptor (Homo sapiens, UniProt P25021).
The target in the next test is Histamine H1 receptor (Homo sapiens, UniProt P35367). The test is classed as functional, cell-based.
Test [7] addresses 5-hydroxytryptamine receptor 2A (Homo sapiens, UniProt P28223).

Structures are written as SMILES.
Also: assay procedure not described here.

Chain of Histamine H1 receptor (P35367 whole entry): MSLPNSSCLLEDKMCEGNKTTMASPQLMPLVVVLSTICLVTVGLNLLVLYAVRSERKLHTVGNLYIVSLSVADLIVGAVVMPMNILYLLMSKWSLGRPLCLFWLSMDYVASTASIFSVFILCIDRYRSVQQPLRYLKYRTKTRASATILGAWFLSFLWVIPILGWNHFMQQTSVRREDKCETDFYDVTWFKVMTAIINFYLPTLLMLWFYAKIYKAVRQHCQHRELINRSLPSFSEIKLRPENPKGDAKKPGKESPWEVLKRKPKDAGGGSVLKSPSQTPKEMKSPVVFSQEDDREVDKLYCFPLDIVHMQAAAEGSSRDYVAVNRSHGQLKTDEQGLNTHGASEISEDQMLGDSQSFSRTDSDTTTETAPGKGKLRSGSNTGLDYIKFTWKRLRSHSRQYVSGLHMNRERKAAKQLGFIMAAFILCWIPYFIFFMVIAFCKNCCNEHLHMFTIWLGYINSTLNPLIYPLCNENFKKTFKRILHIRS
Chain of Histamine H2 receptor (P25021 whole entry): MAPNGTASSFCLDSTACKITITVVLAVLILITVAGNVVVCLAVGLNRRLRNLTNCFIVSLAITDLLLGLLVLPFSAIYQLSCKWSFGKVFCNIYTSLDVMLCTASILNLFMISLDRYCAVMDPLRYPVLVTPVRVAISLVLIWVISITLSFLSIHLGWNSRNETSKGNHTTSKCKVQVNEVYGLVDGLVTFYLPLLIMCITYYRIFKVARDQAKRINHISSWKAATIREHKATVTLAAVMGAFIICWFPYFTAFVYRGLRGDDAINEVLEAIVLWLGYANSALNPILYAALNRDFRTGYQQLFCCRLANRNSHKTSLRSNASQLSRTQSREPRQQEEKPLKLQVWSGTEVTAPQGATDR
Chain of Gamma-aminobutyric acid type B receptor subunit 1 (Q9UBS5 whole entry): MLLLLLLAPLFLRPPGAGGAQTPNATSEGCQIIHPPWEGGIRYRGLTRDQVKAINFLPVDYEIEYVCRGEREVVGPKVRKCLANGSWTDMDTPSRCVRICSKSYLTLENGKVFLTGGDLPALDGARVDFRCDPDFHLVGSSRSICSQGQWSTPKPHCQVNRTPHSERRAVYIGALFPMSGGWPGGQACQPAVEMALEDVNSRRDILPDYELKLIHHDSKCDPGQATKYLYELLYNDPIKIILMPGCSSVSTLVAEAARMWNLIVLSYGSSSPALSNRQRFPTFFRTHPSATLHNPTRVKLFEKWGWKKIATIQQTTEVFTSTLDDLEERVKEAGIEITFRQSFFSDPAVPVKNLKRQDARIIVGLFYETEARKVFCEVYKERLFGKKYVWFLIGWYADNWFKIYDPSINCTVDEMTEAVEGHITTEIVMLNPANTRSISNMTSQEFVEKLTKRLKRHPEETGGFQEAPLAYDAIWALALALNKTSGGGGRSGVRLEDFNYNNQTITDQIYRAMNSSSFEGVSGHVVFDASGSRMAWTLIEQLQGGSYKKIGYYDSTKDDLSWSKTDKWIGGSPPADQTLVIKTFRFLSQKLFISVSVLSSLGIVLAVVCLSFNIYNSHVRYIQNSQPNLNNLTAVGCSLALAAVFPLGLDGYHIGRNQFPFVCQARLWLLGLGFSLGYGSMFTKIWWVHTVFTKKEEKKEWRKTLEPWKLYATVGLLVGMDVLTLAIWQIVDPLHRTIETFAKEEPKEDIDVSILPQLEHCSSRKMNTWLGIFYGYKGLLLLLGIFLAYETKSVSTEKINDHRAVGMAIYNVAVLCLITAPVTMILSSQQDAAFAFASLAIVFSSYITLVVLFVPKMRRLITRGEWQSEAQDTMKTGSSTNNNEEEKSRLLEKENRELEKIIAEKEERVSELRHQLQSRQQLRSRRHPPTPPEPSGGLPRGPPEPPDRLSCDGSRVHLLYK
Chain of 5-hydroxytryptamine receptor 2A (P28223 whole entry): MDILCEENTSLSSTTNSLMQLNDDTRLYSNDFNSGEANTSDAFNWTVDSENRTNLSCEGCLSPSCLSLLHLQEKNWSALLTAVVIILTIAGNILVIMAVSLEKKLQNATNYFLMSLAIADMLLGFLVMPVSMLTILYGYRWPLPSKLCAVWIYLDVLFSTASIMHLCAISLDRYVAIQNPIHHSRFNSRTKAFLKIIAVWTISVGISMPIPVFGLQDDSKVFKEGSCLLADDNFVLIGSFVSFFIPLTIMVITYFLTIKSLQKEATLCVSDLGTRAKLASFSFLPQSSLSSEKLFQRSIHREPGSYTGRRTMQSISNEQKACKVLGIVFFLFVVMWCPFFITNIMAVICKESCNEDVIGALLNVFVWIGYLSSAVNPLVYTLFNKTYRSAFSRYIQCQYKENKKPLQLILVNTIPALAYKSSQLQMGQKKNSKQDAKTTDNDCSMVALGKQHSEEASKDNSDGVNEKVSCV

A word on the AC50: it is the concentration giving half of the maximal activity seen. Consider `N=C(N)NC(=O)c1nc(Cl)c(N)nc1N` [AMILORIDE], for which the half-maximal activity concentration (AC50) in [1] was above 10 µM; in test [2] it was above 30 µM; at D(4) dopamine receptor, above 10 µM; in test [3] it was above 10 µM; in [4], above 10 µM; in test [5], above 10 µM. Besides, the AC50 is above 30 µM in [6] and above 10 µM at Histamine H2 receptor.

On to `C[C@]12C=CC(=O)C=C1C(Cl)=C[C@@H]1[C@@H]2[C@@H](O)C[C@@]2(C)[C@H]1CC[C@]2(O)C(=O)CO` [CLOPREDNOL], for which, at Histamine H1 receptor, the AC50 was above 30 µM.

`COc1cccc2c1C(=O)c1c(O)c3c(c(O)c1C2=O)C[C@@](O)(C(=O)CO)C[C@@H]3O[C@H]1C[C@H](N)[C@H](O)[C@H](C)O1` [DOXORUBICIN] displayed an AC50 in test [3] above 10 µM.

As for `CCn1c(=O)c2c(nc(/C=C/c3ccc(OC)c(OC)c3)n2C)n(CC)c1=O` [ISTRADEFYLLINE], at Histamine H1 receptor, the AC50 was above 30 µM.

Regarding `C[C@]12C=CC(=O)C=C1CC[C@@H]1[C@@H]2[C@@H](O)C[C@@]2(C)[C@H]1CC[C@]2(O)C(=O)CO` [PREDNISOLONE], the concentration at half-maximal activity (AC50) in test [2] and in [6] was above 30 µM throughout.

In test [7], `CCC(=O)c1ccc2c(c1)N(CC(C)N(C)C)c1ccccc1S2` (configuration not stated) [PROPIOMAZINE] returned an AC50 of 0.0233 µM.

Turning to `Cc1ccc(O)c([C@H](CCN(C(C)C)C(C)C)c2ccccc2)c1` [TOLTERODINE], the AC50 was above 10 µM in [1]; 8.84 µM in test [7]; above 10 µM on D(4) dopamine receptor; above 10 µM in test [3]; above 10 µM in test [4]; 0.0065 µM in [5]. On Histamine H2 receptor, this molecule displayed an AC50 of 3.2 µM.

Take `Oc1cc(Cl)ccc1Oc1ccc(Cl)cc1Cl` [TRICLOSAN]: the concentration at half-maximal activity (AC50) on Histamine H1 receptor is above 30 µM.
